{"source": "patent US11833204B2", "about": "“Visible light-activatable nanoparticles for cancer immunotherapy and use thereof” (KOREA INSTITUTE OF SCIENCE AND TECHNOLOGY, priority 2021, dated 2023)", "system": "CT26 cells", "assay": "Anticancer effect in CT26 tumor animal model", "format": "in vivo, mice", "description": "[…] nude mice (6 weeks old, 20-25 g, male) bred in a sterile environment were used. The mice were acclimated for 2 weeks prior to starting the experiment. The mice had ad libitum access to food and water in cages maintained at a temperature of 22±2° C. and a humidity of 40-60% on a 12 h light and dark cycle during the experiment. All experimental procedures were performed according to the guidelines of the Institutional Animal Care and Use Committee of the Korea Institute of Science and Technology.\nColon cancer was induced in the male nude mice. To this end, 1×10^6 CT26 cells were subcutaneously inoculated into the left thigh of each mouse to construct a tumor animal model. Thereafter, the tumor was allowed to grow until its volume reached ˜200-250 mm^3 prior to the experiment. For sample administration, the mice were randomly divided into 4 groups, 24 animals per group. In a control (“Con”), animals were administered intravenously PBS at a concentration of 5 mg/kg twice on days 0 and 2. In a DOX-administered group, animals were administered intravenously doxorubicin (DOX) at a concentration of 5 mg/kg twice on days 0 and 2. In a VPF(+L)-administered group, animals were administered intravenously verteporfin (VPF) at a concentration of 5 mg/kg twice on days 0 and 2 and exposed by irradiation with visible light using a 671 nm laser at 40 mW for 250 sec. In an LT-NPs(-L)-administered group, animals were administered intravenously the self-assembled nanoparticles (LT-NPs) at a concentration of 5 mg/kg twice on days 0 and 2. In an LT-NPs(+L)-administered group, animals were administered intravenously the self-assembled nanoparticles (LT-NPs) at a concentration of 5 mg/kg twice on days 0 and 2 and exposed by irradiation with visible light using a 671 nm laser at 40 mW for 250 sec.\nChanges in tumor volume (maximum diameter x minimum diameter^2×0.53) in the groups were measured every 2 days for a total of 0-25 days. After 7 days, blood was harvested from each group and analyzed for HSP70, HMGB1, immunogenic apoptotic cancer cells, mature dendritic cells, activated T cells, and IFN-γ levels.\n9 h after drug administration, cancer tissues were excised from each group. Each cancer tissue was sectioned to a thickness of 10 μm, washed twice with DBPS, and stained with DAPI in the dark for 15 min. The section was imaged using a Leica TCS SP8 focal microscope (Leica Microsystems GmbH).\nImmune cells infiltrated into cancer cells in each group were analyzed. After 7 days, animals in each group were euthanized under anesthesia and cancer tissues were collected. Monocytes were isolated using a tumor dissociation kit (Miltenyi Biotec) according to the manufacturer's protocol. Next, the monocytes were incubated with Fc block for 5 min to avoid non-specific binding and stained with antibodies for 1 h to determine the proportions of i) immunogenic apoptotic cancer cells (CD45 and CRT staining), ii) activated T cells (CD45, CD3, and CD8 staining), and iii) mature dendritic cells (CD11c, CD40, and CD86 staining) in the cancer tissues.", "key": {"[1]": {"details": "after 7 days, +L, Western blotting, versus other groups"}}, "data": [{"smiles": "C=CC1=C(C)/C2=C/C3=NC(Cc4[nH]c(c(CCCCC(=O)OC)c4C)CC4N=C(CC1N2)C(C)=C4CCC(=O)N[C@H](Cc1ccccc1)C(=O)N[C@@H](CCCNC(=N)N)C(=O)N[C@H](CCCNC(=N)N)C(=O)NCC(=O)NC1C[C@@H](OC2C[C@](O)(C(=O)CO)Cc4c(O)c5c(c(O)c42)C(=O)c2c(OC)cccc2C5=O)O[C@@H](C)[C@H]1O)[C@@]1(C)C3=CC=C(C(=O)OC)[C@@H]1C(=O)OC", "note": "(some centres unmarked) [LT-NPs, VPF-FRRG(SEQ ID NO: 1)-DOX]", "values": [{"measurement": "number of animals cured", "setting": "5 mg/kg i.v. days 0 and 2, +L", "value": 3}, {"measurement": "growth of cancer cells (tumor volume)", "setting": "5 mg/kg i.v. days 0 and 2, +L (671 nm laser 40 mW 250 sec), versus other groups", "value": "significantly reduced"}, {"measurement": "proportion of activated T cells in cancer tissues", "setting": "after 7 days, +L", "value": "significantly higher than those in the other groups"}, {"measurement": "proportion of immunogenic apoptotic cancer cells in cancer tissues", "setting": "after 7 days, +L", "value": "significantly higher than those in the other groups"}, {"measurement": "proportion of mature dendritic cells in cancer tissues", "setting": "after 7 days, +L", "value": "significantly higher than those in the other groups"}, {"measurement": "expression level of HMGB1", "setting": "[1]", "value": "significantly high"}, {"measurement": "expression level of HSP70", "setting": "[1]", "value": "significantly high"}, {"measurement": "degree of apoptosis in cancer cells", "setting": "after 7 days, +L, versus other groups", "value": "significantly high"}]}]}
